Experimental data from paper PMC6013247, “Preclinical characterization of INCB053914, a novel pan-PIM kinase inhibitor, alone and in combination with anticancer agents, in models of hematologic malignancies” (PLoS ONE, 2018).

Experiments:
[1] = target: PIM3 (Homo sapiens, UniProt Q86V86); test: PIM3 AlphaScreen kinase assay; format: biochemical; conditions: 1 mM ATP; read-out: Mean (SD) IC50
Method: AlphaScreen assay. Reactions (20 μl) were carried out in white 384-well polystyrene plates (Greiner Bio-One, Kremsmünster, Austria) dotted with 0.8 μl of the compound in dimethylsulfoxide in the assay buffer (50 mM Tris, pH 7.5, 0.01% Tween-20, 5 mM MgCl2, 0.01% bovine serum albumin [BSA], 5 mM dithiothreitol) containing 0.05 μM Biotin-labeled Bcl-2–associated death promoter protein peptide substrate (AnaSpec, Fremont, California), 1 mM ATP, and 2.5 pM PIM1 (Invitrogen, Thermo Fisher Scientific, Waltham, Massachusetts), or 1.25 pM PIM3 (Millipore, Billerica, Massachusetts) enzyme. After 1 hour at 25°C, the reactions were stopped with 10 μl STOP Buffer (150 mM Tris, pH 7.5, 150 mM NaCl, 75 mM ethylenediaminetetraacetic acid [EDTA], 0.01% Tween-20, 0.3% BSA) supplemented with Phospho-Bad (Ser112) antibody (Cell Signaling Technology, Danvers, Massachusetts) diluted 666-fold, and Streptavidin donor beads (PerkinElmer, Waltham, Massachusetts), along with Protein-A acceptor beads (PerkinElmer, Akron, Ohio), at 15 μg/ml each. Supplementation of STOP buffer with beads and stopping the reactions were carried out under reduced light. […] After the reactions were stopped, the plates were incubated for 1 hour in the dark at room temperature and then read on a PHERAstar FS plate reader (BMG Labtech, Cary, North Carolina) under reduced light.

[2] = target: CHEK1 (Homo sapiens, UniProt O14757); test: Kinase selectivity panel; format: biochemical; conditions: [ATP] = 1 mM
[3] = target: CHEK2 (Homo sapiens, UniProt O96017); test: Kinase selectivity panel; format: biochemical; conditions: [ATP] = 1 mM
[4] = target: DDR2 (Homo sapiens, UniProt Q16832); test: Kinase selectivity panel; format: biochemical; conditions: [ATP] = 1 mM
DDR2, sequence (Q16832 22-855): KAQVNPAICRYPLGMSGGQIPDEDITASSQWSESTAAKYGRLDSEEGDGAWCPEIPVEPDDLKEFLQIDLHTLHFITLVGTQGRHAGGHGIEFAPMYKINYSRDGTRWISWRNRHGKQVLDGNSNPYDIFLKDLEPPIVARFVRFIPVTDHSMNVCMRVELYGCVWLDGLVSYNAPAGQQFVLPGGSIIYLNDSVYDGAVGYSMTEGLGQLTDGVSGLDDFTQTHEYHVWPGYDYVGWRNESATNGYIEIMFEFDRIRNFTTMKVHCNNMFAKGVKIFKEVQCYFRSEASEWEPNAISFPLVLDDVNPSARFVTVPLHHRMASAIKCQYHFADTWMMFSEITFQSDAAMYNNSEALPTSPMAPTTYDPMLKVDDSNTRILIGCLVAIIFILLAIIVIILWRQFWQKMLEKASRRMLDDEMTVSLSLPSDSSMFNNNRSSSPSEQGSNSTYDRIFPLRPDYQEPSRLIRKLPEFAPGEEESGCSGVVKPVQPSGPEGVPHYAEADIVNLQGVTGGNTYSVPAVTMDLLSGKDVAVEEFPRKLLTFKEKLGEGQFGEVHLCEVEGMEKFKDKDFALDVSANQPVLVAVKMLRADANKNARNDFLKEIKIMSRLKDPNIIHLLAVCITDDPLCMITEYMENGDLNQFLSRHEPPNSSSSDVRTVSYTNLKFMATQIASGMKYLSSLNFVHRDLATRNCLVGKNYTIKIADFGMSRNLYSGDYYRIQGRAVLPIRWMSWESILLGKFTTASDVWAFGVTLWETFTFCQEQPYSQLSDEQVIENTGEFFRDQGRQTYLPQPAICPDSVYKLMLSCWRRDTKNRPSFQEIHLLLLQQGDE

[5] = target: DYRK2 (Homo sapiens, UniProt Q92630); test: Kinase selectivity panel; format: biochemical; conditions: [ATP] = 1 mM
[6] = target: FAK (Homo sapiens, UniProt Q05397); test: Kinase selectivity panel; format: biochemical; conditions: [ATP] = 1 mM
[7] = target: FLT3 (Homo sapiens, UniProt P36888); test: Kinase selectivity panel; format: biochemical; conditions: [ATP] = 1 mM
[8] = target: IGF1R (Homo sapiens, UniProt P08069); test: Kinase selectivity panel; format: biochemical; conditions: [ATP] = 1 mM
[9] = target: IKKB (Homo sapiens, UniProt O14920); test: Kinase selectivity panel; format: biochemical; conditions: [ATP] = 1 mM
IKKB, sequence (O14920 whole entry): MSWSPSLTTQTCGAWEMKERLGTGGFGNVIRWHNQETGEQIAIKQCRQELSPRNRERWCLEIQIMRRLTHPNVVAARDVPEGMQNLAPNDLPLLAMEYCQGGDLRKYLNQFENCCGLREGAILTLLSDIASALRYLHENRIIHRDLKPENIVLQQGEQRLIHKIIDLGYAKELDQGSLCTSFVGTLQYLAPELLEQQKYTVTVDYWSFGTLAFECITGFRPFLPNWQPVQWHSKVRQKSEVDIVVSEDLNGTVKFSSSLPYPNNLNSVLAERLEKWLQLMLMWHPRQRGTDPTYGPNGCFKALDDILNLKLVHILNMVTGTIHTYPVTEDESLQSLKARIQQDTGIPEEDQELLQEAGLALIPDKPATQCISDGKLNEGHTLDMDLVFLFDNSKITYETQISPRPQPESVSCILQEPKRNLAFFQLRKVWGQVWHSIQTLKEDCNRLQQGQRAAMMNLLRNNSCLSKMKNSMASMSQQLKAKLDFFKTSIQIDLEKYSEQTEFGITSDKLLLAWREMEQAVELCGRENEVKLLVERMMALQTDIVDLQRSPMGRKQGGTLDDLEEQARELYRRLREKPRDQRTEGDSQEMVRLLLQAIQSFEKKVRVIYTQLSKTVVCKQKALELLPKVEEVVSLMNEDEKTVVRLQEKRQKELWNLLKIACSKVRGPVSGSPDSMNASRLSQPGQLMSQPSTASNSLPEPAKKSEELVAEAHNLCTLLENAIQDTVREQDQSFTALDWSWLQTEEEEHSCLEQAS

[10] = target: LCK (Homo sapiens, UniProt P06239); test: Kinase selectivity panel; format: biochemical; conditions: [ATP] = 1 mM
[11] = target: LOK (Homo sapiens, UniProt O94804); test: Kinase selectivity panel; format: biochemical; conditions: [ATP] = 1 mM
[12] = target: LRRK2 (Homo sapiens, UniProt Q5S007); test: Kinase selectivity panel; format: biochemical; conditions: [ATP] = 1 mM
[13] = target: PAK4 (Homo sapiens, UniProt O96013); test: Kinase selectivity panel; format: biochemical; conditions: [ATP] = 1 mM
[14] = target: PDGFR BETA (Homo sapiens, UniProt P09619); test: Kinase selectivity panel; format: biochemical; conditions: [ATP] = 1 mM
[15] = target: PLK3 (Homo sapiens, UniProt Q9H4B4); test: Kinase selectivity panel; format: biochemical; conditions: [ATP] = 1 mM
[16] = target: RET (Homo sapiens, UniProt P07949); test: Kinase selectivity panel; format: biochemical; conditions: [ATP] = 1 mM
RET, sequence (P07949 29-1114): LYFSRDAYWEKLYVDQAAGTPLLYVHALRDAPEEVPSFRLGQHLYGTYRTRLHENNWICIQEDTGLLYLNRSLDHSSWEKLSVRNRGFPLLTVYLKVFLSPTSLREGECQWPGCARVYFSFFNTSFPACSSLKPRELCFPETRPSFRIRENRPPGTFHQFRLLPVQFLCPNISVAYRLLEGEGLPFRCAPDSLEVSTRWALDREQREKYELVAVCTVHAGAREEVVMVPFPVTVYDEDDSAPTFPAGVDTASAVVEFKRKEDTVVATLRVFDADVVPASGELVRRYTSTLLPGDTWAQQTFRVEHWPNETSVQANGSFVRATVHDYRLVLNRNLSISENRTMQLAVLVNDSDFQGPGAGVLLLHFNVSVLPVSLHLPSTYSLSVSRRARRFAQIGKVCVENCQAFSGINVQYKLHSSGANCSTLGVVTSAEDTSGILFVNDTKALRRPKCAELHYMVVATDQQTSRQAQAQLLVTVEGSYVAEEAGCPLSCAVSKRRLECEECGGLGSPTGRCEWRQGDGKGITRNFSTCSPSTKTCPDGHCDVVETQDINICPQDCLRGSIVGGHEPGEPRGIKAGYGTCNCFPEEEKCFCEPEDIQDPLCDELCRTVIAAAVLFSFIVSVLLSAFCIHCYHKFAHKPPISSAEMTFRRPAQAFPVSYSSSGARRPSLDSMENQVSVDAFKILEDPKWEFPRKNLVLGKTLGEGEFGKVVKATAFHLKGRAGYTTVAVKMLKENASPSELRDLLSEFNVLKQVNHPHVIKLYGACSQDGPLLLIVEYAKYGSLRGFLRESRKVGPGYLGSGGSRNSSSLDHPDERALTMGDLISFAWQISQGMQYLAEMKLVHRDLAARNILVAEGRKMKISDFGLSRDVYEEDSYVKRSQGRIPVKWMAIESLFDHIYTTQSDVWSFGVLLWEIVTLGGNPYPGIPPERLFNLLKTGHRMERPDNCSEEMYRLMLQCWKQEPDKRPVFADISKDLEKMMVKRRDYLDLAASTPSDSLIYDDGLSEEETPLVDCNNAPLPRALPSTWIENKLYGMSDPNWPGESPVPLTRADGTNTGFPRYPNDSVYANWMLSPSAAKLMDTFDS

[17] = target: SGK3 (Homo sapiens, UniProt Q96BR1); test: Kinase selectivity panel; format: biochemical; conditions: [ATP] = 1 mM
[18] = target: STK4 (Homo sapiens, UniProt Q13043); test: Kinase selectivity panel; format: biochemical; conditions: [ATP] = 1 mM
STK4, sequence (Q13043 whole entry, species assumed): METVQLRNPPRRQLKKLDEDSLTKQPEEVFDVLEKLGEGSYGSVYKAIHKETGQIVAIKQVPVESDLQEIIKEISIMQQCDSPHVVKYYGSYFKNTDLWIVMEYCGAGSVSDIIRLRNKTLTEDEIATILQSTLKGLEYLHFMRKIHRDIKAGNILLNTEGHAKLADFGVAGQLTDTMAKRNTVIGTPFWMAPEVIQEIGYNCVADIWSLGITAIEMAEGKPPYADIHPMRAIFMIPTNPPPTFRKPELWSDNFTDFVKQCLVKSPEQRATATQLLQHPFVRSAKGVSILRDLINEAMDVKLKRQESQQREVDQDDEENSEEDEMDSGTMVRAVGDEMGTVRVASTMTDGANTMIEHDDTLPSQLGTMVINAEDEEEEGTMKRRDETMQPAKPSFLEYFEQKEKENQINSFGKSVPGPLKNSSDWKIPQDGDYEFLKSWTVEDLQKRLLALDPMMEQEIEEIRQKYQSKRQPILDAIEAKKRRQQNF

[19] = target: Per-Arnt-Sim (PAS) kinase (Homo sapiens, UniProt Q96RG2); test: PAS kinase activity, further evaluation; format: biochemical
Per-Arnt-Sim (PAS) kinase, sequence (Q96RG2 whole entry): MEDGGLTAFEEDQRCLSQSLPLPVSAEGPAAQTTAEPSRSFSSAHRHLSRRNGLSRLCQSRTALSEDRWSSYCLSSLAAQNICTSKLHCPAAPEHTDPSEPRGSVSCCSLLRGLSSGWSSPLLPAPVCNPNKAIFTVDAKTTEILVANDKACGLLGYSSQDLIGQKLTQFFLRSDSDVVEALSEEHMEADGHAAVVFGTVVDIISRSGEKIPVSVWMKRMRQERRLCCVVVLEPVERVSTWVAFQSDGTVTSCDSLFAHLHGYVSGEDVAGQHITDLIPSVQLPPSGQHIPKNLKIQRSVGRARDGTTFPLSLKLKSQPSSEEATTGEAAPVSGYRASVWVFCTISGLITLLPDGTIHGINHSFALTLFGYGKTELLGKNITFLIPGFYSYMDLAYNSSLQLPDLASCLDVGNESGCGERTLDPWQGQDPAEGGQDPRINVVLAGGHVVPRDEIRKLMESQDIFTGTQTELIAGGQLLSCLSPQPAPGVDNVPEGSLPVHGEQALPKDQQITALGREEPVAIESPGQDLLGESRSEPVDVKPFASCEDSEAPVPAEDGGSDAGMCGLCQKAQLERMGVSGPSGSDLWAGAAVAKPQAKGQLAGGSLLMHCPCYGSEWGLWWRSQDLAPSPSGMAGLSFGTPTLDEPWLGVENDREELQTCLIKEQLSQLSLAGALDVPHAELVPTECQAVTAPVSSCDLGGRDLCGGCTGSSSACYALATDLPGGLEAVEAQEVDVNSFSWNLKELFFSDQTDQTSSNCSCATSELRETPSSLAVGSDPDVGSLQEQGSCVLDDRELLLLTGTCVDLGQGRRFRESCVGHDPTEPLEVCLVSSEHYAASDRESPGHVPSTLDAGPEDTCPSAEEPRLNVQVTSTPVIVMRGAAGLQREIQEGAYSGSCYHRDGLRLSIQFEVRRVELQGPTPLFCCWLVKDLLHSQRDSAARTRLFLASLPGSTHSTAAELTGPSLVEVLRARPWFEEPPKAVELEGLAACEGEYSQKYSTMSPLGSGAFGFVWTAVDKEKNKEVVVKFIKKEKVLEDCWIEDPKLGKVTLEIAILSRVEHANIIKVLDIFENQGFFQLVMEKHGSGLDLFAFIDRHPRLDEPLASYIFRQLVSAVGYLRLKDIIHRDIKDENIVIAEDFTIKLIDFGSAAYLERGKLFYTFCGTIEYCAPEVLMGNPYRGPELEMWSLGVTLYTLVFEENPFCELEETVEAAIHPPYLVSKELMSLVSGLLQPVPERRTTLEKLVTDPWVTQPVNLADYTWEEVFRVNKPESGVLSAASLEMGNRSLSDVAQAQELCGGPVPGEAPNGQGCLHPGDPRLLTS

[20] = system: KG-1; test: Cell proliferation assay ([3H]-thymidine); format: cell-based, human; conditions: KG-1 (AML)
Method: (§1) The antiproliferative effects of INCB053914 on hematologic tumor cells were investigated using assays described in the Supporting Information (S2 File).
(§2) Cell proliferation assays. […] After 3 to 4 days, [^3H]-thymidine (1 μCi/well) (PerkinElmer) in PBS (10 μl) was added to the cell culture for an additional 12 hours. The incorporated radioactivity was separated by filtration with water through GF/B filters (Packard Bioscience, Meriden, Connecticut) and measured by liquid scintillation counting with a TopCount (Packard Bioscience).

[21] = system: MOLM-16; test: Cell proliferation assay ([3H]-thymidine); format: cell-based, human; conditions: MOLM-16 (AML)
Method: as §1, §2

[22] = system: BAD phosphorylation in KMS-12-BM tumors; test: Intratumoral pBAD inhibition in xenograft-bearing mice; format: in vivo; conditions: Mus musculus, single oral dose, 4 hours post dose, read-out: IC50, inhibition of BAD phosphorylation relative to vehicle in tumors
Method: (§3) Human MOLM-16 (AML) and KMS-12-BM (MM) xenografts were established in SCID mice. For the evaluation of intratumoral pBAD inhibition, tumor-bearing mice (three to eight mice/group) were treated with a single oral dose of INCB053914 at doses ranging from 0 (vehicle) to 100 mg/kg. In one representative experiment, mice were sacrificed 4 hours after a single dose, and tumors were collected to analyze the levels of pBAD relative to those of vehicle-administered controls. Plasma samples were collected for pharmacokinetic analysis.

[23] = system: BAD phosphorylation in MOLM-16 tumors; test: as above; format: in vivo; conditions: Mus musculus, MOLM16, single oral dose, 4 hours post dose, read-out: IC50, inhibition of BAD phosphorylation relative to vehicle in tumors
Method: as §3

[24] = system: BAD phosphorylation in whole blood spiked with KMS-12-BM cells; test: BAD phosphorylation in whole blood samples spiked with tumor cells, treated ex vivo; format: cell-based; conditions: Homo sapiens
[25] = system: Pfeiffer DLBCL cells; test: In vitro proliferation of Pfeiffer DLBCL cells, single agents and combination; format: cell-based
Method: Synergistic effects of INCB053914 in combination with INCB050465, cytarabine, or itacitinib, were assessed based on the Bliss independence model. In this model, the expected additive effect, with the assumption that concentration dependent effects of 2 drugs (A and B) are independent, is given by the equation EIND = EA + EB – EA •EB, where 0 ≤ EIND ≤ 1; EA and EB are the magnitudes of effects of A and B alone at given concentrations.
The interaction between effects of A and B can be described by the equation Combination Index = EIND/ EOBS, where EOBS is the observed combined effect of A + B expressed as a probability (0 ≤ EOBS ≤ 1). If the point estimate of Combination Index and its upper 97.5% confidence limit are <1 then the combined effect is synergistic; if the 2-sided 95% confidence intervals (CI) encompass 1 then the combined effect is additive (ie, independent); if the point estimate of Combination Index and the lower 2.5% confidence limit are >1 then the combined effect of A + B are antagonistic.

C[C@H]1CN(c2c(NC(=O)c3ccc(F)c(-c4c(F)cccc4F)n3)cnc3c2CC[C@H]3O)C[C@@H](N)[C@@H]1O.O=P(O)(O)O [INCB053914, N-((R)-4-((3R,4R,5S)-3-amino-4-hydroxy-5-methylpiperidin-1-yl)-7-hydroxy-6,7-dihydro-5H-cyclopenta[b]pyridin-3-yl)-6-(2,6-difluorophenyl)-5-fluoropicolinamide phosphate]
IC50 [1]: 0.00012 µM | IC50 [2]: > 20 µM | IC50 [3]: > 20 µM | IC50 [4]: > 20 µM | IC50 [5]: > 20 µM | IC50 [6]: > 20 µM | IC50 [7]: > 20 µM | IC50 [8]: > 20 µM | IC50 [9]: > 20 µM | IC50 [10]: > 20 µM | IC50 [11]: > 20 µM | IC50 [12]: > 20 µM | IC50 [13]: > 20 µM | IC50 [14]: > 20 µM | IC50 [15]: > 20 µM | IC50 [16]: > 20 µM | IC50 [17]: > 20 µM | IC50 [18]: > 20 µM | effect on PAS kinase activity relative to PIM2 [19]: approximately equipotent effects on PIM2 and PAS kinase activities | GI50 ([20]; Homo sapiens, read-out: Mean (± SD) GI50): 0.0179 ± 0.0071 µM | Mean (SD) maximum inhibition [20]: 88.3 ± 3.8% | GI50 ([21]; Homo sapiens, MOLM16, read-out: Mean (± SD) GI50): 0.0033 µM | Mean (SD) maximum inhibition [21]: 99.3 ± 0.3% | IC50 [22]: 0.145 µM | IC50 [23]: 0.07 µM | IC50 [24]: 0.134 µM | proliferation of Pfeiffer cells, single agent [25]: inhibited
